Here are results for 27 molecules from patent US11912693B2, “Compounds for modulating S1P1 activity and methods of using the same” (TREVENA, INC., priority 2017, dated 2024).

Assay [1] concerns the target T1, human sphingosine-1-phosphate receptor 1 (S1P1) (Homo sapiens (Human), UniProt P21453). In words: β-Arrestin2 recruitment assay (PathHunter), S1P1 CHO-K1 cells. The conditions noted are these: for hS1P1 B-arrestin2 pEC50: β-arrestin2 recruitment, S1P1 CHO-K1 cells; for Emax: CHO-K1, efficacy (SPAN) normalized to fingolimod, read-out: hS1P1 B-arrestin2 SPAN. Format: cell-based. A digest of the protocol: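 Enzyme-fragment complementation read-out: agonist-driven β-arrestin2 binding to ProLink-tagged human S1P1 in stable CHO-K1 cells restores β-galactosidase, measured 1 h at room temperature after a 60 min 37° C. compound incubation. Potency as pEC50, efficacy relative to fingolimod (SPAN).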
For orientation: Activated receptors often draw arrestin, which recruitment assays turn into a signal.
Target sequence in this assay (P21453 whole entry, looked up, the tested form may be a part): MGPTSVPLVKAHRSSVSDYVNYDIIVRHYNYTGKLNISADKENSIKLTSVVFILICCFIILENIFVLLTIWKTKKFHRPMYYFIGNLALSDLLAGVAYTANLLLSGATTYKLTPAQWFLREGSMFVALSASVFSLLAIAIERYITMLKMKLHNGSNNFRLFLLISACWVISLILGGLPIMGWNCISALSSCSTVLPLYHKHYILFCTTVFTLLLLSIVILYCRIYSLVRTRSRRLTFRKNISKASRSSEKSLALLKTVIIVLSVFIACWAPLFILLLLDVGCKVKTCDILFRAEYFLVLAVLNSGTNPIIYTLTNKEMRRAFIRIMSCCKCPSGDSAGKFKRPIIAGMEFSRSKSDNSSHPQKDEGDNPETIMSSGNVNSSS
Target sequence in this assay (P32121 whole entry partner, looked up, the tested form may be a part): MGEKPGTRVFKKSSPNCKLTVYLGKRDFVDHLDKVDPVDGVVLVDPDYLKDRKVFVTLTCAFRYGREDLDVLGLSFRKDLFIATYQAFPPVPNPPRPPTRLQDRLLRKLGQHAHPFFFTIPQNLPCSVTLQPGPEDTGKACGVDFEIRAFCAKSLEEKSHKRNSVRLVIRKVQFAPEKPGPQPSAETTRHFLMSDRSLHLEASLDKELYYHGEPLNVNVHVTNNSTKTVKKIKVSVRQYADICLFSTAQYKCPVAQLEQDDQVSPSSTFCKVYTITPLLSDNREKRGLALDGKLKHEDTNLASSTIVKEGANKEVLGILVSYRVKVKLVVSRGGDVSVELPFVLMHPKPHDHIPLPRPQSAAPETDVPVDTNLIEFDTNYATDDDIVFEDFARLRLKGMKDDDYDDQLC

For assay [2], the target named is T1, human sphingosine-1-phosphate receptor 1 (S1P1). In words: Inhibition of cAMP production (HTRF cAMP HiRange), S1P1 CHO-K1 cells. Format: cell-based. Particulars: for hS1P1 cAMP pEC50: inhibition of cAMP production, S1P1 CHO-K1 cells; for Emax: CHO-K1, efficacy (SPAN) normalized to fingolimod, read-out: hS1P1 cAMP SPAN. A digest of the protocol:
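CHO-K1 cells stably co-expressing human S1P1 (C-terminal Prolink tag) and EA-β-arrestin2 were grown in AssayComplete Media 6 at 37° C. and 5% CO2, plated, and incubated overnight. Agonist-driven inhibition of intracellular cAMP was read by TR-FRET with the HTRF cAMP HiRange kit on a PheraStar reader. Potency is pEC50, and efficacy (SPAN) is normalized to fingolimod.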
Target sequence in this assay (P21453 whole entry, looked up, the tested form may be a part): as the sequence (P21453 whole entry, looked up, the tested form may be a part) above

Regarding `Brc1ccccc1-c1nc(-c2ccc3c(c2)nnn3Cc2ccncc2)no1` [Compound 48, 5-(2-bromophenyl)-3-(1-(pyridin-4-ylmethyl)-1H-benzo[d][1,2,3]triazol-5-yl)-1,2,4-oxadiazole], in assay [1], the “hS1P1 B-arrestin2 pEC50” value is reported as less than 5. The “hS1P1 cAMP pEC50” value in assay [2] was less than 6.5.

Regarding `CC(F)(F)CNc1ccc(-c2nc(-c3ccc4c(c3)CCC(=O)N4)no2)cc1C#N` [Compound 347, 2-[(2,2-difluoropropyl)amino]-5-[3-(2-oxo-1,2,3,4-tetrahydroquinolin-6-yl)-1,2,4-oxadiazol-5-yl]benzonitrile], in assay [1], the Emax was more than 75% and the “hS1P1 B-arrestin2 pEC50” value was more than 5. In addition, in assay [2], the Emax is more than 75% and the “hS1P1 cAMP pEC50” value is more than 6.5.

In the case of `CC(C)n1nnc2cc(-c3nc(-c4nccn4C)no3)ccc21` [Compound 569, 5-[3-(1-methyl-1H-imidazol-2-yl)-1,2,4-oxadiazol-5-yl]-1-(propan-2-yl)-1H-1,2,3-benzotriazole], in assay [1], the Emax is less than 75% and the “hS1P1 B-arrestin2 pEC50” value is given as less than 5. Besides, in assay [2], the Emax was more than 75% and the “hS1P1 cAMP pEC50” value was less than 6.5.

For `CCC1(CC)CC(=O)c2cc(-c3nnc(-c4ccc5c(c4)nnn5C(C)C)s3)ccc2O1` [Compound 67, 2,2-diethyl-6-(5-(1-isopropyl-1H-benzo[d][1,2,3]triazol-5-yl)-1,3,4-thiadiazol-2-yl)chroman-4-one], in assay [1], the Emax is less than 75% and the “hS1P1 B-arrestin2 pEC50” value is more than 5. Further, in assay [2], the Emax is more than 75% and the “hS1P1 cAMP pEC50” value is on record as less than 6.5.

Consider `COc1cccc(F)c1-c1noc(-c2ccc3c(c2)nnn3C(C)C)n1` [Compound 260, 3-(2-fluoro-6-methoxy-phenyl)-5-(1-isopropylbenzotriazol-5-yl)-1,2,4-oxadiazole], for which, in assay [1], the Emax is more than 75% and the “hS1P1 B-arrestin2 pEC50” value is reported as less than 5. In assay [2], the Emax is more than 75% and the “hS1P1 cAMP pEC50” value is reported as less than 6.5.

Regarding `CCC1(CC)CC(=O)c2cc(-c3nc(-c4cccnc4O)no3)ccc2O1` [Compound 258, 2,2-diethyl-6-(3-(2-hydroxypyridin-3-yl)-1,2,4-oxadiazol-5-yl)chroman-4-one], the “hS1P1 B-arrestin2 pEC50” value in assay [1] is listed as less than 5. Also, the “hS1P1 cAMP pEC50” value in assay [2] is less than 6.5.

With `COc1ccccc1-c1nsc(-c2ccc3c(c2)nnn3C(C)C)n1` [Compound 213, 5-[3-(2-methoxyphenyl)-1,2,4-thiadiazol-5-yl]-1-(propan-2-yl)-1H-1,2,3-benzotriazole], the “hS1P1 B-arrestin2 pEC50” value in assay [1] was less than 5. Further, in assay [2], the “hS1P1 cAMP pEC50” value is less than 6.5.

For the molecule `FC(F)(F)c1cc(Br)ccc1-c1noc(-c2ccc3c(c2)nnn3C2CCCC2)n1` [Compound 114, 5-{3-[4-bromo-2-(trifluoromethyl)phenyl]-1,2,4-oxadiazol-5-yl}-1-cyclopentyl-1H-1,2,3-benzotriazole], in assay [1], the Emax is less than 75% and the “hS1P1 B-arrestin2 pEC50” value is listed as less than 5. Besides, in assay [2], the Emax is less than 75% and the “hS1P1 cAMP pEC50” value is recorded as less than 6.5.

Take `CCC1(CC)CC(=O)c2cc(-c3nc(-c4ccoc4)no3)ccc2O1` [Compound 495, 2,2-diethyl-6-(3-(furan-3-yl)-1,2,4-oxadiazol-5-yl)chroman-4-one]: the “hS1P1 B-arrestin2 pEC50” value in assay [1] was more than 5. For the same molecule, in assay [2], the “hS1P1 cAMP pEC50” value is reported as more than 6.5.

Regarding `CCC1(CC)CC(=O)c2cc(-c3nc(-c4ccc5cnccc5c4)no3)ccc2O1` [Compound 522, 2,2-diethyl-6-(3-(isoquinolin-6-yl)-1,2,4-oxadiazol-5-yl)chroman-4-one], in assay [1], the “hS1P1 B-arrestin2 pEC50” value is reported as less than 5. Moreover, in assay [2], the “hS1P1 cAMP pEC50” value was less than 6.5.

Turning to `CC(C)n1nnc2cc(C(=O)Nc3noc4ccccc34)ccc21` [Compound 181, N-(benzo[d]isoxazol-3-yl)-1-isopropyl-1H-benzo[d][1,2,3]triazole-5-carboxamide], in assay [1], the Emax was more than 75% and the “hS1P1 B-arrestin2 pEC50” value was less than 5. In assay [2], the Emax is more than 75% and the “hS1P1 cAMP pEC50” value was less than 6.5.

In the case of `Cc1ccccc1-c1nc(-c2ccc3c(ccn3C(C)C)c2)no1` [Compound 389, 3-(1-isopropyl-1H-indol-5-yl)-5-(o-tolyl)-1,2,4-oxadiazole], in assay [1], the “hS1P1 B-arrestin2 pEC50” value is given as more than 5. Also, in assay [2], the “hS1P1 cAMP pEC50” value is recorded as more than 6.5.

On to `CC(C)Oc1ccc(-c2nc(-c3ccc4c(c3)nnn4C(C)C)no2)cc1C(F)(F)F` [Compound 246, 5-(4-isopropoxy-3-(trifluoromethyl)phenyl)-3-(1-isopropyl-1H-benzo[d][1,2,3]triazol-5-yl)-1,2,4-oxadiazole], for which, in assay [1], the “hS1P1 B-arrestin2 pEC50” value is given as more than 5. Moreover, in assay [2], the “hS1P1 cAMP pEC50” value is given as more than 6.5.

In the case of `CC(C)Cn1nnc2cc(-c3nc4cccc(Br)c4o3)ccc21` [Compound 454, 7-bromo-2-(1-isobutyl-1H-benzo[d][1,2,3]triazol-5-yl)benzo[d]oxazole], the “hS1P1 B-arrestin2 pEC50” value in assay [1] is more than 5. Besides, the “hS1P1 cAMP pEC50” value in assay [2] is listed as more than 6.5.

`CC(C)n1nnc2cc(-c3nc4c(Br)cccc4o3)ccc21` [Compound 428, 4-bromo-2-(1-isopropylbenzotriazol-5-yl)-1,3-benzoxazole]: in assay [1], the Emax is more than 75% and the “hS1P1 B-arrestin2 pEC50” value is less than 5. In addition, in assay [2], the Emax is more than 75% and the “hS1P1 cAMP pEC50” value is recorded as less than 6.5.

Regarding `CC(C)n1nnc2cc(-c3nc(-c4ccc(-c5ccccc5)cn4)no3)ccc21` [Compound 9, 5-[3-(5-phenylpyridin-2-yl)-1,2,4-oxadiazol-5-yl]-1-(propan-2-yl)-1H-1,2,3-benzotriazole], in assay [1], the “hS1P1 B-arrestin2 pEC50” value is listed as less than 5. Besides, the “hS1P1 cAMP pEC50” value in assay [2] is on record as less than 6.5.

On to `FC(F)(F)c1cc(-c2noc(-c3ccc4c(c3)nnn4C3CC3)n2)ccc1OCc1ccccc1` [Compound 85, 5-{3-[4-(benzyloxy)-3-(trifluoromethyl)phenyl]-1,2,4-oxadiazol-5-yl}-1-cyclopropyl-1H-1,2,3-benzotriazole], for which, in assay [1], the Emax was less than 75% and the “hS1P1 B-arrestin2 pEC50” value is on record as less than 5. Also, in assay [2], the Emax was less than 75% and the “hS1P1 cAMP pEC50” value is less than 6.5.

As to `CCC1(CC)CC(=O)c2cc(-c3ncc(-c4ccncc4)cn3)ccc2O1` [Compound 510, 2,2-diethyl-6-(5-(pyridin-4-yl)pyrimidin-2-yl)chroman-4-one], the “hS1P1 B-arrestin2 pEC50” value in assay [1] is given as more than 5. Further, the “hS1P1 cAMP pEC50” value in assay [2] is recorded as more than 6.5.

Turning to `Cc1cccc2oc(-c3ccc4c(c3)nnn4CC(C)C)nc12` [Compound 447, 2-(1-isobutyl-1H-benzo[d][1,2,3]triazol-5-yl)-4-methylbenzo[d]oxazole], the “hS1P1 B-arrestin2 pEC50” value in assay [1] was more than 5. Also, in assay [2], the “hS1P1 cAMP pEC50” value is more than 6.5.

With `COc1ccc(-c2nsc(-c3ccc4[nH]ccc4c3)n2)cc1` [Compound 363, 5-[3-(4-methoxyphenyl)-1,2,4-thiadiazol-5-yl]-1H-indole], the “hS1P1 B-arrestin2 pEC50” value in assay [1] is on record as less than 5. Moreover, in assay [2], the “hS1P1 cAMP pEC50” value was less than 6.5.

As to `CCC1(CC)CC(=O)c2cc(-c3nc(-c4cccc(OC)n4)no3)ccc2O1` [Compound 553, 2,2-diethyl-6-[3-(6-methoxypyridin-2-yl)-1,2,4-oxadiazol-5-yl]-3,4-dihydro-2H-1-benzopyran-4-one], the “hS1P1 B-arrestin2 pEC50” value in assay [1] is more than 5. Further, the “hS1P1 cAMP pEC50” value in assay [2] is on record as less than 6.5.

Consider `CSc1ccc(-c2nc(-c3ccc4c(c3)nnn4C3CCCC3)no2)cc1` [Compound 237, 3-(1-cyclopentyl-1H-benzo[d][1,2,3]triazol-5-yl)-5-(4-(methylthio)phenyl)-1,2,4-oxadiazole], for which, in assay [1], the Emax is less than 75% and the “hS1P1 B-arrestin2 pEC50” value is given as less than 5. Moreover, in assay [2], the Emax is less than 75% and the “hS1P1 cAMP pEC50” value is less than 6.5.

As for `Cc1ccc(-c2nc(-c3ccc4c(c3)nnn4C(C)C)no2)cn1` [Compound 119, 3-(1-isopropyl-1H-benzo[d][1,2,3]triazol-5-yl)-5-(6-methylpyridin-3-yl)-1,2,4-oxadiazole], in assay [1], the Emax was less than 75% and the “hS1P1 B-arrestin2 pEC50” value is less than 5. In addition, in assay [2], the Emax is less than 75% and the “hS1P1 cAMP pEC50” value is less than 6.5.

As to `Cc1ccccc1-c1noc(-c2ccc3c(c2)nnn3CC2CC2)n1` [Compound 288, 1-(cyclopropylmethyl)-5-[3-(2-methylphenyl)-1,2,4-oxadiazol-5-yl]-1H-1,2,3-benzotriazole], in assay [1], the Emax is less than 75% and the “hS1P1 B-arrestin2 pEC50” value was less than 5. Further, in assay [2], the Emax was less than 75% and the “hS1P1 cAMP pEC50” value is less than 6.5.

On to `CCC1(CC)CC(=O)c2cc(-c3nc(-c4sccc4OC)no3)ccc2O1` [Compound 604, 2,2-diethyl-6-(3-(3-methoxythiophen-2-yl)-1,2,4-oxadiazol-5-yl)chroman-4-one], for which, in assay [1], the “hS1P1 B-arrestin2 pEC50” value is more than 5. In assay [2], the “hS1P1 cAMP pEC50” value was more than 6.5.

Consider `COc1cc(C)c2nc(-c3ccc4c(c3)nnn4C(C)C)oc2c1` [Compound 436, 2-(1-isopropyl-1H-benzo[d][1,2,3]triazol-5-yl)-6-methoxy-4-methylbenzo[d]oxazole], for which, in assay [1], the Emax was more than 75% and the “hS1P1 B-arrestin2 pEC50” value is on record as less than 5. Also, in assay [2], the Emax is more than 75% and the “hS1P1 cAMP pEC50” value is listed as more than 6.5.

Regarding `CCC1(CC)CC(=O)c2cc(-c3nc(-c4cccc(OC)c4)no3)ccc2O1` [Compound 71, 2,2-diethyl-6-(3-(3-methoxyphenyl)-1,2,4-oxadiazol-5-yl)chroman-4-one], in assay [1], the Emax is less than 75% and the “hS1P1 B-arrestin2 pEC50” value is less than 5. Also, in assay [2], the Emax was more than 75% and the “hS1P1 cAMP pEC50” value is reported as less than 6.5.
